Assays:
[1] = molecular target: T1, PARG (389-976) (Homo sapiens, UniProt Q86W56); test: PARG enzyme inhibition assay (TR-FRET); format: biochemical; settings: Bio PARylated His-TEV-PARP1 substrate
T1 construct: 5 μL of PARG (389-976) (manufactured by Chempartner Chemical Co., Ltd.); purchased Chempartner Chemical Co., Ltd
Method: PARG in vitro assays were conducted in standard 384-well plates in a total volume of 15 μL. 5 μL of PARG (389-976) (manufactured by Chempartner Chemical Co., Ltd.) in buffer (50 mM Tris-HCL 7.5, 30 mM KCl, 1 mM EDTA, 3 mM DTT, tween-20 0.01%, BSA 0.025%) was added at a final concentration of 1.5 pM to the 384-well plates containing the compounds to be tested, which was incubated for 30 min at room temperature. To the above mixture was added 5 μL Bio PARylated His-TEV-PARP1 (2-1014) substrate (manufactured by Chempartner Chemical Co., Ltd.) at a final concentration of 12 nM, after addition, the resulting mixture was incubated for 30 minutes at room temperature. Then to the mixture was added detection reagent (5 μL) which was buffered with 50 mM Tris-HCL 7.5, 30 mM KCl, 1 mM EDTA, 3 mM DTT, tween-20 0.01%, BSA 0.025%, and consisted of 3 μM of compound PDD00017273 and 9 nM Mab anti-6HIS XL665 (Cisbio: 61HISXLA) and 0.9 nM streptavidin affinity terbium cryptate (Cisbio: 610SATLA), all at 3× working concentrations (final concentrations of […], 3 nM and 0.3 nM, respectively). After 120 min incubation in the dark at room temperature, TR-FRET signals were measured at Ex 340 and Em 665 and Em 615. The ratio for each well was calculated as Em 665/Em 615 and the compound inhibition rate was calculated based on the obtained data.

[2] = Pharmacokinetic studies in mice after intravenous and oral administration; format: in vivo; settings: mouse, male CD-1 mice, plasma
Method: After intravenous and oral administration to male C57BL/6J mice or male CD-1 mice, plasma samples were collected through the orbital venous plexus at 8-9 time points (e.g., 5 min, 15 min, 30 min, 1 h, 2 h, 4 h, 7 h, 24 h or 5 min, 15 min, 30 min, 1 h, 2 h, 4 h, 6 h, 8 h, 24 h). The collected blood samples were transferred to microcentrifuge tubes containing EDTA-K2 anticoagulant, and the […] were centrifuged for 5 min at 4° C. and 4000 g. The supernatants were stored in a refrigerator at −75° C.±15° C. The concentrations of the compounds in the plasma at the different time points were detected by LC-MS/MS and the relevant pharmacokinetic parameters were calculated using the WinNonlin software

T1 sequence (Q86W56 389-976): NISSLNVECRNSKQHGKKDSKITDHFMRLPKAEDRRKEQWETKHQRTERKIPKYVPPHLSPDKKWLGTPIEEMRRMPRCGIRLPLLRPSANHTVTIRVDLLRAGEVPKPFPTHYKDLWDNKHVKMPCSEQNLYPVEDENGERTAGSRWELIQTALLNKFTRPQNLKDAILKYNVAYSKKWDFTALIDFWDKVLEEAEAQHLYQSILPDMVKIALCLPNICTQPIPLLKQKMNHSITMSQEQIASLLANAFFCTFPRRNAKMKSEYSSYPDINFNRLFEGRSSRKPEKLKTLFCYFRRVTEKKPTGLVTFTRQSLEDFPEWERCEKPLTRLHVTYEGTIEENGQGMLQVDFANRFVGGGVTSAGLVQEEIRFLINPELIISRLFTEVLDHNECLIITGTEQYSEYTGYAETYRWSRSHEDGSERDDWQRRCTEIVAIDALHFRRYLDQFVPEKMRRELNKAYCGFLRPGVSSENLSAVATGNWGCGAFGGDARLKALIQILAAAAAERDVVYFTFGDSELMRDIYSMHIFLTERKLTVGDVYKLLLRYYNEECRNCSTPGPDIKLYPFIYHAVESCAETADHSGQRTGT

SMILES | IC50 ([1]; class symbol) | IC50 ([1]; numeric value) | AUC(0-inf) ([2]; intravenous 5 mg/kg) | AUC(0-t) ([2]; intravenous 5 mg/kg) | clearance ([2]; intravenous 5 mg/kg) | AUC(0-inf) ([2]; oral administration 10 mg/kg) | AUC(0-t) ([2]; oral administration 10 mg/kg) | Cmax ([2]; oral administration 10 mg/kg)
C[C@H]1CN(c2cc(S(=O)(=O)NC3(C)CC3)cc3c2cnn3-c2nnc(C(F)(F)F)s2)C[C@H](C)N1 [Compound 1] | < 2 nM | 0.2 nM | 3700 ng·h/mL | 2540 ng·h/mL | 22.5 mL/min/kg | 2980 ng·h/mL | 2610 ng·h/mL | 175 ng/mL
C[C@H]1CN(c2cc(S(=O)(=O)NC3(C)CC3)cc3c2cnn3-c2nnc(C(F)F)s2)C[C@H](C)N1 [Compound 1′, reference compound] | < 2 nM | 0.21 nM | 939 ng·h/mL | 905 ng·h/mL | 89.5 mL/min/kg | 929 ng·h/mL | 725 ng·h/mL | 98.8 ng/mL
C[C@H]1CN(c2cc(S(=O)(=O)NC3(C#N)CC3)cc3c2cnn3-c2nnc(C(F)(F)F)s2)C[C@H](C)N1 [Compound 2] | < 2 nM | 0.62 nM |  |  |  |  |  | 
C[C@H]1CN(c2c(F)c(S(=O)(=O)NC3(C#N)CC3)cc3c2cnn3-c2nnc(C(F)(F)F)s2)C[C@H](C)N1 [Compound 3] |  |  | 2420 ng·h/mL | 2410 ng·h/mL | 34.8 mL/min/kg | 4080 ng·h/mL | 4070 ng·h/mL | 513 ng/mL
C[C@H]1CN(c2c(F)c(S(=O)(=O)NC3(C)CC3)cc3c2cnn3-c2nnc(C(F)(F)F)s2)C[C@H](C)N1 [Compound 4] | < 2 nM |  | 2350 ng·h/mL | 1990 ng·h/mL | 35.6 mL/min/kg | 3970 ng·h/mL | 3260 ng·h/mL | 198 ng/mL
C[C@H]1CN(c2c(F)c(S(=O)(=O)NC3(C)CC3)cc3c2cnn3-c2nnc(C(F)F)s2)C[C@H](C)N1 [Compound 5] | < 2 nM |  | 1620 ng·h/mL | 1600 ng·h/mL | 51.6 mL/min/kg | 2000 ng·h/mL | 1970 ng·h/mL | 172 ng/mL

Source: patent publication US20250154142A1, “THIADIAZOLE-SUBSTITUTED COMPOUND, PHARMACEUTICAL COMPOSITIONS THEREOF, AND APPLICATIONS THEREOF” (Shanghai Yingli Pharmaceutical Co., Ltd., priority 2023, published 2025)
